The text below walks through data of patent publication US11202773B2, “Locally bioavailable drugs” (UNIVERSITY OF HOUSTON SYSTEM, priority 2015, dated 2021).

Data set [1] concerns human Colon S9. Kind of data set: Glucuronidation by human colon S9. It counts as in vitro ADME. Conditions: substrate 10 μM. How it is done: (§1) FIG. 5D is a bar graph illustrating in vitro metabolism of phenolics. Glucuronidation rates of 6a1-6a4 by human liver and intestinal microsomes. Additional metabolic rates of various locally bioavailable COX-2 inhibitors are in Table 4. […]. The incubation systems were: for glucuronidation, 0.88 mM magnesium chloride (MgCl2), 4.4 mM saccharolactone, 0.022 mg/mL alamethicin, 3.5 mM uridine 5′-diphospho-glucuronic acid (UDPGA), 10 μM substrates and different concentrations of microsomes in 50 mM potassium phosphate buffer (pH 7.4); for sulfation, 10 mM dithiothreitol (DTT), 5 mM MgCl2, 100 μM 3′-phosphoadenosine-5′-phosphosulfate (PAPS),10 μM substrate and different concentrations of S9 fractions in 50 mM potassium phosphate buffer (pH 7.4).
In vitro tools were employed to help predict the in vivo metabolism rates of the COX-2 inhibitors that are phenolics. […] By employing microsomes and S9 fractions prepared from both rats and humans, it could be determined if the results obtained in the rat model could be reasonably extrapolated to humans. In these experiments, raloxifene and genistein, two phenolic compounds which undergo extensive first-pass metabolism, were selected as controls.

In data set [2] the test system is human intestine microsomes. As to the kind of experiment: Glucuronidation by human intestine microsomes. It counts as in vitro ADME. How it is done: as §1
(§2) In vitro tools were employed to help predict the in vivo metabolism rates of the COX-2 inhibitors that are phenolics. The microsomes and S9 fractions prepared from colon or liver were used to determine the in vivo glucuronidation and sulfation rates of the phenolic compounds, respectively. By employing microsomes and S9 fractions prepared from both rats and humans, it could be determined if the results obtained in the rat model could be reasonably extrapolated to humans. In these experiments, raloxifene and genistein, two phenolic compounds which undergo extensive first-pass metabolism, were selected as controls.

The next data set has as its target recombinant human COX-1 (Homo sapiens, UniProt P23219). As to the kind of experiment: In vitro enzyme assay, recombinant human COX-1. It counts as biochemical. As to conditions: read-out: IC50 against recombinant human COX-1.
A short description of data set [3]: Solubility in HBSS with or without β-cyclodextrin. Type of data set: physicochemical.
The test system of the next data set is Raw264.7 cells. As to the kind of experiment: Metabolism of the phenolics by Raw264.7 cells. Type of data set: in vitro ADME, mouse. As to conditions: 1 μM compound, 14 hours. Here is the method:
FIG. 4A is a bar graph illustration of the metabolism of the phenolics by Raw264.7 cells. Raw264.7 cells were incubated with 0.1 μg/mL LPS and 1 μM 6a1, 6a2 or 6a3, respectively. 14 hours later the concentrations of PGD2, the phenolics (i.e., aglycones, solid bars), and their phase II metabolites (open bars for glucuronides and shade bars for sulfates) were determined in the medium. Less PGD2 production means inhibition of COX-2 enzyme.
Glucuronidation of 6a1 in Raw264.7 cells was not influenced by LPS (FIG. 4B). […] The results of these experiments initially indicate that when characterizing inhibitory effects of the phenolics on COX-2, the importance of metabolic stability should be brought into consideration. This could be why phenolics were not considered to be active against COX-2 in many published reports using cellular COX-2 assays.

The next data set deals with rat colon microsomes. Kind of data set: Glucuronidation by rat colon microsomes. It counts as in vitro ADME. How it is done:
FIG. 5B is a bar graph illustrating in vitro glucuronidation of phenolics in liver and colon microsomes of rats. Glucuronidation rates of 6a1-6a4 by rat liver and colon microsomes were measured. Additional metabolic rates of various locally bioavailable COX-2 inhibitors are in Table 3. […]. The incubation systems were: for glucuronidation, 0.88 mM magnesium chloride (MgCl2), 4.4 mM saccharolactone, 0.022 mg/mL alamethicin, 3.5 mM uridine 5′-diphospho-glucuronic acid (UDPGA), 10 μM substrates and different concentrations of microsomes in 50 mM potassium phosphate buffer (pH 7.4); for sulfation, 10 mM dithiothreitol (DTT), 5 mM MgCl2, 100 μM 3′-phosphoadenosine-5′-phosphosulfate (PAPS), 10 μM substrate and different concentrations of S9 fractions in 50 mM potassium phosphate buffer (pH 7.4).
as §2

Data set [4] relates to human Colon S9. Kind of data set: Sulfation by human colon S9. Type of data set: in vitro ADME. As to conditions: substrate 10 μM. Here is the method:
as §1, §2

For data set [5] the following is noted: rat, in vivo.
Protocol: For this purpose, blood samples were collected from each rat every hour during the perfusion period, and the bile samples were also collected by cannulating the bile duct.
By comparing the 6a1 concentrations in the input and output perfusate containing β-CD-formulated 6a1, the amounts of 6a1 absorbed from the colon were calculated for each hour during the perfusion period (FIG. 10B).
The target in a further data set is T1, human COX-2 (Homo sapiens, UniProt P35354).
T1 sequence (P35354 18-604): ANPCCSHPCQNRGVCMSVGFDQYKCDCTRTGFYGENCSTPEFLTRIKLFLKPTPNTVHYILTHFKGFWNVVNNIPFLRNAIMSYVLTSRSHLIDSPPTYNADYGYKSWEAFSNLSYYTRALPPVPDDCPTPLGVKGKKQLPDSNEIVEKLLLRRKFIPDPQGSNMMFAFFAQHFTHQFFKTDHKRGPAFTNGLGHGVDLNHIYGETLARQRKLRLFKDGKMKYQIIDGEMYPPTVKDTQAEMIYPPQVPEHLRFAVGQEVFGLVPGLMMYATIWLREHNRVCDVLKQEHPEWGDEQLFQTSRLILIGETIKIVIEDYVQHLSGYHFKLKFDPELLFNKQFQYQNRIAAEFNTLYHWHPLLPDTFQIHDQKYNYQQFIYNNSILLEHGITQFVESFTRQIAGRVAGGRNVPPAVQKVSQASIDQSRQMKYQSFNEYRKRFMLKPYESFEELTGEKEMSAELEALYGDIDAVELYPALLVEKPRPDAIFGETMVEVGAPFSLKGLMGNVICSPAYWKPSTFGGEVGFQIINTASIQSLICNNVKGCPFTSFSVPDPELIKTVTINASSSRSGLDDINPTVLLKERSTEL
Kind of data set: In vitro enzyme assay, recombinant human COX-2 (PGE2 production). Type of data set: biochemical. As to conditions: for IC50: read-out: IC50 against recombinant human COX-2; for Inhibition of COX-2 enzyme (PGE2 production, FIG. 3A): result in words. The text has this: FIG. 3A is a bar graph illustration of PGE2 production by recombinant human COX-2 enzyme in the presence of the new compounds. Less PGE2 production means inhibition of COX-2 enzyme.
FIG. 3B is a bar graph illustration of PGE2 production by recombinant human COX-2 enzyme in the presence of the metabolites of the new compounds. Less PGE2 production means inhibition of COX-2 enzyme.

For data set [6] the following is noted: rat, in vivo, po, 20 mg/kg.
Protocol: The drugs were dispersed in ORA-PLUS® suspension vehicle (from Paddock Laboratories, Minneapolis, Minn.) and administrated to SD rats by oral gavage. The blood samples were collected from the tail tips at different time points.
Therefore, 20 mg/kg 6a1 was administered in suspension vehicle to the proximal colon of SD rats via a catheter reaching approximately 8 cm deep into the anus.

The structures appear in SMILES notation.

Sequence of recombinant human COX-1 (P23219 24-599): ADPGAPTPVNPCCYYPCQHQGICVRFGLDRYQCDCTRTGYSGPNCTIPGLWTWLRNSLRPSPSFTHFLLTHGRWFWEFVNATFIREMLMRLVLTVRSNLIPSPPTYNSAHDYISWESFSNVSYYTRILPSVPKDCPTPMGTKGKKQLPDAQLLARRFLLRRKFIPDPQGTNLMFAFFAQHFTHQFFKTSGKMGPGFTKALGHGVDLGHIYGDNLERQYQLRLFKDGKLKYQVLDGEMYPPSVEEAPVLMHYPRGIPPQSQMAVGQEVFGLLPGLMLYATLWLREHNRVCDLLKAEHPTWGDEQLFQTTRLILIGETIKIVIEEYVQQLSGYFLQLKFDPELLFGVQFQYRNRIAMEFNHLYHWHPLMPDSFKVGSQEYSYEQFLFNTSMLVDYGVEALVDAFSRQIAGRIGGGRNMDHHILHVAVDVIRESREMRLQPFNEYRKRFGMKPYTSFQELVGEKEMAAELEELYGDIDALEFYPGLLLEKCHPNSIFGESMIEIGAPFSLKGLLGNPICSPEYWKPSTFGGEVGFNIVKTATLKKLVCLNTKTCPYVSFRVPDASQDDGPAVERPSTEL

The IC50 is the concentration that gives 50% inhibition. Turning to `Cc1ccc(-c2cc(COc3ccccc3O)nn2-c2ccc(S(N)(=O)=O)cc2)cc1` [Compound 6a1], the “Glucuronidation rates by human Colon S9 (Mean)” value in the data set on human Colon S9 [1] was determined as 1080 pmol/mg/min. Besides, in [2], the “Glucuronidation rates by intestine microsomes (Mean)” value was 2786 pmol/mg/min. Moreover, the IC50 on recombinant human COX-1 was 5.13 µM. The “Osmotic pressure of the solution” value in data set [3] (6a1 in HBSS with 4 mM β-CD) is 290 mOsm/kg. The “Solubility in HBSS” value in data set [3] (in the presence of 4 mM β-CD, after sonication and centrifuge) was determined as 70 µM. The “Form recovered in medium at the end of incubation” value (“Form recovered in medium” for short) in the data set on Raw264.7 cells is on record as “recovered exclusively as their glucuronides”. Besides, the “Glucuronidation rates by colon microsomes (Mean)” value in the data set on rat colon microsomes came out at 1111 pmol/mg/min. For the same molecule, the “Sulfation rates by human Colon S9 (Mean)” value in the data set with human Colon S9 [4] worked out at 110 pmol/mg/min. In addition, in data set [5], the “6a1-glucuronide concentration in bile” value is “more than 200 μM”, the “Absorbed amount recovered from bile as glucuronides” value is recorded as “approximately 75%”, the “Fraction absorbed in the colon that escaped first-pass metabolism in the liver” value was “less than 1%” and the “Fraction of total perfused amount absorbed in the colon” value is “Approximately 13%”. Besides, on human COX-2, the IC50 came out at 0.118 µM and the “Inhibition of COX-2 enzyme (PGE2 production, FIG. 3A)” value (shortened to “Inhibition of COX-2 enzyme”) is listed as “effective inhibitors”.
Take `Cc1ccc(-c2cc(COc3cccc(O)c3)nn2-c2ccc(S(N)(=O)=O)cc2)cc1` [Compound 6a2]: in [2], the “Glucuronidation rates by intestine microsomes (Mean)” value amounted to 924 pmol/mg/min. On recombinant human COX-1, the IC50 stood at 27.2 µM. In the data set with Raw264.7 cells, the “Form recovered in medium” value is given as “recovered exclusively as their glucuronides”. In addition, in the data set on rat colon microsomes, the “Glucuronidation rates by colon microsomes (Mean)” value came out at 1199 pmol/mg/min. Further, on human COX-2, the half-inhibitory concentration (IC50) is 0.201 µM and the “Inhibition of COX-2 enzyme” value is “effective inhibitors”.
For the molecule `Cc1ccc(-c2cc(COc3ccc(O)cc3)nn2-c2ccc(S(N)(=O)=O)cc2)cc1` [Compound 6a3], in [2], the “Glucuronidation rates by intestine microsomes (Mean)” value is 45 pmol/mg/min. The concentration for half-maximal inhibition (IC50) on recombinant human COX-1 was found to be 38.2 µM. In addition, in the data set on Raw264.7 cells, the “Form recovered in medium” value is “stayed as aglycone”. In data set [6], this molecule yielded a Peak blood concentration of 1.69 µM. In addition, the “Glucuronidation rates by colon microsomes (Mean)” value with rat colon microsomes was 301 pmol/mg/min. In addition, on human COX-2, the IC50 came to 1.08 µM and the “Inhibition of COX-2 enzyme” value is “effective inhibitors”.
